Laboratory results taken from patent publication US20060013880A1, “Formulation stabilizer for proton pump inhibitors” (priority 2004, published 2006).

Procedure: This standardized stress study simulates degradation during long-term storage under high, but naturally occurring humidity levels. • 1) Dry binary mixture was prepared by accurately weighing 30 mg of lansoprazole ( Lot # A10344, purchased from ITF Chemical, LTDA, of Polo Petrochimico, Brazil) into a 20 ml head space-gas chromatography vial. A stabilizer was also weighed and added into the vial. The stabilizer tested in the experiments included the polymeric bases: cholestyramine chloride ( Lot# 038167, Dow Chemical), cholestyramine resin in hydroxide form (prepared from cholestyramine chloride as described in Example 1), Eudragit E-PO powder (lot# G030131033, Rohm Gmbh, Germany), and chitosan powder (Mutchler inc., Harrington, N.J.). […] The lansoprazole and stabilizer were mixed by vortexing for 30 seconds. • 2) A second set of dry binary mixtures were prepared in a head space-gas chromatography vial with a glass insert. […] Ten microliters of the diluted samples were analyzed by HPLC to quantitate the remaining lansoprazole using freshly prepared external lansoprazole standard solution. […]

For cholestyramine hydroxide, the “Stabilization effect for lansoprazole (in words)” value was “significant stabilization effect”.
